Columns and labels:
[1] = Antiinflammatory activity in mouse BV2 cells assessed as inhibition of LPS-induced NO production incubated for 24 hrs measured after 15 mins by Griess assay; assay type: functional, cell-based; conditions: BV-2
[2] = Cytotoxicity against LPS-induced mouse BV2 cells assessed as cell viability after 24 hrs by MTT assay; assay type: cell-based, BV-2; design: concentration or dose not given beside the values; conditions: read-out: Activity

Compound	IC50 [1]	viability at 24 h [2]
CC(CC(=O)C[C@@H](C)[C@H]1C[C@H](O)[C@@]2(C)C3=C(C(=O)C[C@]12C)[C@@]1(C)CCC(=O)C(C)(C)[C@@H]1C[C@@H]3O)C(=O)O (stereo partly specified)	13.6 µM	97.9%
CC(=O)O[C@@H]1C(=O)C2=C(C(=O)C[C@H]3C(C)(C)[C@@H](O)CC[C@]23C)[C@]2(C)C(=O)C[C@H](/C(C)=C\C(=O)CC(C)C(=O)O)[C@@]12C (stereo partly specified)	10.4 µM	95.1%
CC(CC(=O)C[C@@H](C)[C@H]1C[C@H](O)[C@@]2(C)C3=C(C(=O)C[C@]12C)[C@@]1(C)CC[C@H](O)C(C)(C)[C@@H]1C[C@@H]3O)C(=O)O (stereo partly specified)	13.6 µM	90.7%
CC(CC(=O)C[C@@H](C)[C@H]1CC(=O)[C@@]2(C)C3=C(C(=O)[C@@H](O)[C@]12C)[C@@]1(C)CCC(=O)C(C)(C)[C@@H]1C[C@@H]3O)C(=O)O (stereo partly specified)	5.91 µM	92.3%
CC(CC(=O)C[C@@H](C)[C@H]1C[C@H](O)[C@@]2(C)C3=C(C(=O)C[C@]12C)[C@@]1(C)CC[C@H](O)[C@@](C)(CO)[C@@H]1C[C@@H]3O)C(=O)O (stereo partly specified)	4.15 µM	97.8%
CC(=O)O[C@@H]1C(=O)C2=C(C(=O)C[C@H]3C(C)(C)C(=O)CC[C@]23C)[C@]2(C)C(=O)C[C@H](/C(C)=C\C(=O)CC(C)C(=O)O)[C@@]12C (stereo partly specified)	28 µM	94.3%
C/C(=C/C(=O)CC(C)C(=O)O)[C@H]1CC(=O)[C@@]2(C)C3=C(C(=O)C[C@]12C)[C@@]1(C)CCC(=O)C(C)(C)[C@@H]1C[C@@H]3O (stereo partly specified)	13.8 µM	96.5%
C/C(=C/C(=O)CC(C)C(=O)O)[C@H]1CC(=O)[C@@]2(C)C3=C(C(=O)[C@@H](O)[C@]12C)[C@@]1(C)CC[C@H](O)C(C)(C)[C@@H]1CC3=O (stereo partly specified)	25.9 µM	94.5%
C/C(=C/C(=O)CC(C)C(=O)O)[C@H]1C[C@H](O)[C@@]2(C)C3=C(C(=O)C[C@]12C)[C@@]1(C)CCC(=O)C(C)(C)[C@@H]1C[C@@H]3O (stereo partly specified)	8.73 µM	92.5%
C/C(=C/C(=O)CC(C)C(=O)O)[C@H]1CC(=O)[C@@]2(C)C3=C(C(=O)[C@@H](O)[C@]12C)[C@@]1(C)CC[C@H](O)C(C)(C)[C@@H]1C[C@@H]3O (stereo partly specified)	9.55 µM	93.5%
CC(CC(=O)C[C@@H](C)[C@H]1C[C@H](O)[C@@]2(C)C3=C(C(=O)C[C@]12C)[C@@]1(C)CC[C@H](O)C(C)(C)[C@@H]1CC3=O)C(=O)O (stereo partly specified)	6.5 µM	89.3%
CC(CC(=O)C[C@](C)(O)[C@H]1CC(=O)[C@@]2(C)C3=C(C(=O)[C@@H](O)[C@]12C)[C@@]1(C)CC[C@H](O)C(C)(C)[C@@H]1C[C@@H]3O)C(=O)O (stereo partly specified)	21.3 µM	96.3%
C/C(=C/C(=O)CC(C)C(=O)O)[C@H]1C[C@H](O)[C@@]2(C)C3=C(C(=O)C[C@]12C)[C@@]1(C)CCC(=O)C(C)(C)[C@@H]1CC3 (stereo partly specified)	26.8 µM	89.3%
CC(CC(=O)C[C@@H](C)[C@H]1CC(=O)[C@@]2(C)C3=C(C(=O)C[C@]12C)[C@@]1(C)CCC(=O)C(C)(C)[C@@H]1CC3=O)C(=O)O (stereo partly specified)	9.41 µM	97.5%
CC(CC(=O)C[C@@H](C)[C@H]1CC(=O)[C@@]2(C)C3=C(C(=O)C[C@]12C)[C@@]1(C)CC[C@H](O)C(C)(C)[C@@H]1C[C@@H]3O)C(=O)O (stereo partly specified) [GANODERIC ACID B]	20.2 µM	94.7%
CC(CC(=O)C[C@@H](C)[C@H]1CC(=O)[C@@]2(C)C3=C(C(=O)[C@@H](O)[C@]12C)[C@@]1(C)CC[C@H](O)C(C)(C)[C@@H]1CC3=O)C(=O)O (stereo partly specified) [GANODERIC ACID C6]	15.4 µM	91.6%
CC(CC(=O)C[C@@H](C)[C@H]1CC(=O)[C@@]2(C)C3=C(C(=O)C[C@]12C)[C@@]1(C)CCC(=O)C(C)(C)[C@@H]1C[C@@H]3O)C(=O)O (stereo partly specified) [GANODERIC ACID D]	10.9 µM	93.3%
CC(=O)O[C@@H]1C(=O)C2=C(C(=O)C[C@H]3C(C)(C)C(=O)CC[C@]23C)[C@]2(C)C(=O)C[C@H]([C@H](C)CC(=O)CC(C)C(=O)O)[C@@]12C (stereo partly specified) [GANODERIC ACID F]	24.1 µM	90.6%
CC(CC(=O)C[C@@H](C)[C@H]1CC(=O)[C@@]2(C)C3=C(C(=O)[C@@H](O)[C@]12C)[C@@]1(C)CC[C@H](O)C(C)(C)[C@@H]1C[C@@H]3O)C(=O)O (stereo partly specified) [GANODERIC ACID G]	5.77 µM	95.2%
CC(=O)O[C@@H]1C(=O)C2=C(C(=O)C[C@H]3C(C)(C)[C@@H](O)CC[C@]23C)[C@]2(C)C(=O)C[C@H]([C@H](C)CC(=O)CC(C)C(=O)O)[C@@]12C (stereo partly specified) [GANODERIC ACID H]	12.6 µM	90.4%
CC(CC(=O)C[C@@H](C)[C@H]1C[C@H](O)[C@@]2(C)C3=C(C(=O)C[C@]12C)[C@@]1(C)CCC(=O)C(C)(C)[C@@H]1CC3=O)C(=O)O (stereo partly specified) [GANODERIC ACID J]	22 µM	93.7%
CC(=O)O[C@@H]1C(=O)C2=C([C@@H](O)C[C@H]3C(C)(C)[C@@H](O)CC[C@]23C)[C@]2(C)C(=O)C[C@H]([C@H](C)CC(=O)CC(C)C(=O)O)[C@@]12C (stereo partly specified) [GANODERIC ACID K]	3.65 µM	98.5%
C[C@H](CC[C@H](O)[C@](C)(O)CO)[C@H]1CC[C@@]2(C)C3=CC[C@H]4C(C)(C)C(=O)CC[C@]4(C)C3=CC[C@]12C [GANODERMANONTRIOL]	23.6 µM	85.5%
C/C(=C\CC[C@@H](C)[C@H]1CC[C@@]2(C)C3=CC[C@H]4C(C)(C)[C@@H](O)CC[C@]4(C)C3=CC[C@]12C)CO [GANODEROL B]	13.7 µM	91.3%
CC(CC(=O)C[C@@H](C)[C@H]1C[C@H](O)[C@@]2(C)C3=C(C(=O)C[C@]12C)[C@@]1(C)CCC(=O)C(C)(C)[C@@H]1CC3)C(=O)O (stereo partly specified) [GANOLUCIDIC ACID A]	25.3 µM	95.2%
COC(=O)C(C)CC(=O)C[C@@H](C)[C@H]1C[C@H](O)[C@@]2(C)C3=C(C(=O)C[C@]12C)[C@@]1(C)CCC(=O)C(C)(C)[C@@H]1C[C@@H]3O (stereo partly specified) [METHYL GANODERATE A]	8.01 µM	91.3%
COC(=O)CC[C@@H](C)[C@H]1CC(=O)[C@@]2(C)C3=C(C(=O)[C@@H](O)[C@]12C)[C@@]1(C)CC[C@H](O)C(C)(C)[C@@H]1CC3=O [METHYL LUCIDENATE L]	22.5 µM	83.5%
O=c1c(O)c(-c2ccc(O)c(O)c2)oc2cc(O)cc(O)c12 [QUERCETIN]	15.1 µM	92.5%

Reference: ChEMBL document CHEMBL3826961, “Lanostane triterpenoids from Ganoderma curtisii and their NO production inhibitory activities of LPS-induced microglia” (Bioorg Med Chem Lett, 2016)
